Experimental data published in ChEMBL document CHEMBL3045601, “Synthesis of new quinoline-2-pyrazoline-based thiazolinone derivatives as potential antimicrobial agents” (2013).
Values after ≈ are worked out from the molar mass of the structure shown.

Tests used:
Assay type in all cases: functional
Aspergillus niger = experiment: Antifungal activity against Aspergillus niger MTCC 282 assessed as growth inhibition after 48 hr by NCCLS broth microdilution method; conditions: MTCC 282, 48 h
Pseudomonas aeruginosa = experiment: Antibacterial activity against Pseudomonas aeruginosa MTCC 1688 assessed as growth inhibition after 24 hr by NCCLS broth microdilution method; conditions: MTCC 1688, 24 h
Candida albicans = experiment: Antifungal activity against Candida albicans MTCC 227 assessed as growth inhibition after 48 hr by NCCLS broth microdilution method; conditions: MTCC 227, 48 h
Aspergillus clavatus = experiment: Antifungal activity against Aspergillus clavatus MTCC 1323 assessed as growth inhibition after 48 hr by NCCLS broth microdilution method; conditions: MTCC 1323, 48 h
Escherichia coli = experiment: Antibacterial activity against Escherichia coli MTCC 443 assessed as growth inhibition after 24 hr by NCCLS broth microdilution method; conditions: MTCC 443, 24 h
Staphylococcus aureus = experiment: Antibacterial activity against Staphylococcus aureus MTCC 96 assessed as growth inhibition after 24 hr by NCCLS broth microdilution method; conditions: MTCC 96, 24 h
Streptococcus pyogenes = experiment: Antibacterial activity against Streptococcus pyogenes MTCC 442 assessed as growth inhibition after 24 hr by NCCLS broth microdilution method; conditions: MTCC 442, 24 h

Structure (SMILES)	MIC (Aspergillus niger)	MIC (Pseudomonas aeruginosa)	MIC (Candida albicans)	MIC (Aspergillus clavatus)	MIC (Escherichia coli)	MIC (Staphylococcus aureus)	MIC (Streptococcus pyogenes)
COc1ccc(C2=NN(C3=NC(=O)CS3)C(c3cc4cc(C)ccc4nc3Cl)C2)cc1 (stereo unspecified)	500 µg/mL (≈ 1110 µM)	500 µg/mL (≈ 1110 µM)	1000 µg/mL (≈ 2220 µM)	500 µg/mL (≈ 1110 µM)	500 µg/mL (≈ 1110 µM)	500 µg/mL (≈ 1110 µM)	500 µg/mL (≈ 1110 µM)
Cc1ccc2nc(Cl)c(C3CC(c4ccccc4Cl)=NN3C3=NC(=O)CS3)cc2c1 (stereo unspecified)	50 µg/mL (≈ 110 µM)	50 µg/mL (≈ 110 µM)	100 µg/mL (≈ 220 µM)	100 µg/mL (≈ 220 µM)	50 µg/mL (≈ 110 µM)	250 µg/mL (≈ 549 µM)	50 µg/mL (≈ 110 µM)
Cc1ccc2nc(Cl)c(C3CC(c4ccc(F)cc4)=NN3C3=NC(=O)CS3)cc2c1 (stereo unspecified)	250 µg/mL (≈ 570 µM)	50 µg/mL (≈ 114 µM)	250 µg/mL (≈ 570 µM)	100 µg/mL (≈ 228 µM)	50 µg/mL (≈ 114 µM)	100 µg/mL (≈ 228 µM)	25 µg/mL (≈ 57 µM)
CC1(C)S[C@@H]2[C@H](NC(=O)[C@H](N)c3ccccc3)C(=O)N2[C@H]1C(=O)O [AMPICILLIN]		100 µg/mL (≈ 286 µM)			100 µg/mL (≈ 286 µM)	250 µg/mL (≈ 715 µM)	100 µg/mL (≈ 286 µM)
Cc1ccc2nc(Cl)c(C3CC(c4ccccc4F)=NN3C3=NC(=O)CS3)cc2c1 (stereo unspecified)	50 µg/mL (≈ 114 µM)	250 µg/mL (≈ 570 µM)	100 µg/mL (≈ 228 µM)	500 µg/mL (≈ 1140 µM)	25 µg/mL (≈ 57 µM)	100 µg/mL (≈ 228 µM)	500 µg/mL (≈ 1140 µM)
Cc1ccc2nc(Cl)c(C3CC(c4ccc(O)cc4)=NN3C3=NC(=O)CS3)cc2c1 (stereo unspecified)	1000 µg/mL (≈ 2290 µM)	250 µg/mL (≈ 572 µM)	1000 µg/mL (≈ 2290 µM)	1000 µg/mL (≈ 2290 µM)	500 µg/mL (≈ 1140 µM)	500 µg/mL (≈ 1140 µM)	250 µg/mL (≈ 572 µM)
Cc1ccc2nc(Cl)c(C3CC(c4ccccc4[N+](=O)[O-])=NN3C3=NC(=O)CS3)cc2c1 (stereo unspecified)	50 µg/mL (≈ 107 µM)	12.5 µg/mL (≈ 26.8 µM)	250 µg/mL (≈ 537 µM)	12.5 µg/mL (≈ 26.8 µM)	25 µg/mL (≈ 53.7 µM)	250 µg/mL (≈ 537 µM)	25 µg/mL (≈ 53.7 µM)
Cc1ccc2nc(Cl)c(C3CC(c4ccc([N+](=O)[O-])cc4)=NN3C3=NC(=O)CS3)cc2c1 (stereo unspecified)	25 µg/mL (≈ 53.7 µM)	250 µg/mL (≈ 537 µM)	500 µg/mL (≈ 1070 µM)	100 µg/mL (≈ 215 µM)	50 µg/mL (≈ 107 µM)	100 µg/mL (≈ 215 µM)	50 µg/mL (≈ 107 µM)
Cc1ccc2nc(Cl)c(C3CC(c4cccc([N+](=O)[O-])c4)=NN3C3=NC(=O)CS3)cc2c1 (stereo unspecified)	100 µg/mL (≈ 215 µM)	500 µg/mL (≈ 1070 µM)	500 µg/mL (≈ 1070 µM)	50 µg/mL (≈ 107 µM)	250 µg/mL (≈ 537 µM)	500 µg/mL (≈ 1070 µM)	500 µg/mL (≈ 1070 µM)
COC1=CC(=O)C[C@@H](C)[C@]12Oc1c(Cl)c(OC)cc(OC)c1C2=O [GRISEOFULVIN]	100 µg/mL (≈ 283 µM)		500 µg/mL (≈ 1420 µM)	100 µg/mL (≈ 283 µM)			
Cc1ccc2nc(Cl)c(C3CC(c4ccccc4O)=NN3C3=NC(=O)CS3)cc2c1 (stereo unspecified)	500 µg/mL (≈ 1140 µM)	500 µg/mL (≈ 1140 µM)	1000 µg/mL (≈ 2290 µM)	1000 µg/mL (≈ 2290 µM)	500 µg/mL (≈ 1140 µM)	500 µg/mL (≈ 1140 µM)	250 µg/mL (≈ 572 µM)
Cc1ccc2nc(Cl)c(C3CC(c4ccc(Cl)cc4)=NN3C3=NC(=O)CS3)cc2c1 (stereo unspecified)	100 µg/mL (≈ 220 µM)	100 µg/mL (≈ 220 µM)	500 µg/mL (≈ 1100 µM)	50 µg/mL (≈ 110 µM)	250 µg/mL (≈ 549 µM)	50 µg/mL (≈ 110 µM)	50 µg/mL (≈ 110 µM)
Cc1ccc2nc(Cl)c(C3CC(c4ccccc4)=NN3C3=NC(=O)CS3)cc2c1 (stereo unspecified)	500 µg/mL (≈ 1190 µM)	250 µg/mL (≈ 594 µM)	1000 µg/mL (≈ 2380 µM)	500 µg/mL (≈ 1190 µM)	500 µg/mL (≈ 1190 µM)	250 µg/mL (≈ 594 µM)	500 µg/mL (≈ 1190 µM)
Cc1ccc2nc(Cl)c(C3CC(c4cccc(F)c4)=NN3C3=NC(=O)CS3)cc2c1 (stereo unspecified)	500 µg/mL (≈ 1140 µM)	100 µg/mL (≈ 228 µM)	1000 µg/mL (≈ 2280 µM)	500 µg/mL (≈ 1140 µM)	500 µg/mL (≈ 1140 µM)	500 µg/mL (≈ 1140 µM)	100 µg/mL (≈ 228 µM)
